Laboratory results: the NIST ThermoML archive (doi:10.1016/j.jct.2006.09.008)

Assay: molar heat capacity at constant pressure; mn = molality of the nth substance listed, in mol/kg
Conditions: 350 kPa, Liquid

O=[N+]([O-])[O-].O=[N+]([O-])[O-].[Mn+2] [manganese nitrate] + O
molar heat capacity at constant pressure [J/K/mol]
Conditions	m1 = 0.0132	m1 = 0.0248	m1 = 0.0503	m1 = 0.0825	m1 = 0.0836	m1 = 0.1542	m1 = 0.3085	m1 = 0.5132
278.15 K	75.63	75.56	75.42	75.25	75.25	74.9	74.27	73.62
283.15 K	75.47	75.41	75.28	75.14	75.13	74.83	74.27	73.71
288.15 K	75.36	75.31	75.19	75.07	75.06	74.79	74.3	73.8
293.15 K	75.29	75.24	75.14	75.02	75.02	74.78	74.34	73.88
298.15 K	75.24	75.2	75.1	75	75	74.78	74.38	73.96
303.15 K	75.21	75.17	75.08	74.99	74.99	74.78	74.42	74.04
308.15 K	75.2	75.16	75.08	74.99	74.99	74.8	74.46	74.11
313.15 K	75.2	75.16	75.09	75.01	75	74.83	74.51	74.18
318.15 K	75.21	75.18	75.11	75.03	75.03	74.86	74.56	74.25
323.15 K	75.24	75.2	75.14	75.06	75.06	74.89	74.61	74.32
328.15 K	75.27	75.24	75.17	75.1	75.09	74.94	74.66	74.39
333.15 K	75.31	75.28	75.21	75.14	75.14	74.99	74.72	74.45
338.15 K	75.36	75.33	75.26	75.19	75.19	75.04	74.78	74.52
343.15 K	75.42	75.39	75.32	75.25	75.25	75.1	74.84	74.59
348.15 K	75.48	75.45	75.38	75.31	75.31	75.16	74.91	74.66
353.15 K	75.55	75.52	75.46	75.38	75.38	75.23	74.98	74.73
358.15 K	75.63	75.6	75.53	75.46	75.46	75.31	75.06	74.81
363.15 K	75.72	75.68	75.62	75.54	75.54	75.39	75.14	74.89
368.15 K	75.81	75.78	75.71	75.63	75.63	75.48	75.22	74.97
373.15 K	75.91	75.88	75.81	75.73	75.73	75.57	75.31	75.06
378.15 K	76.02	75.99	75.91	75.83	75.83	75.67	75.41	75.15
383.15 K	76.14	76.1	76.03	75.94	75.94	75.78	75.51	75.25
388.15 K	76.27	76.23	76.15	76.07	76.07	75.89	75.62	75.36
393.15 K	76.41	76.37	76.29	76.2	76.2	76.02	75.74	75.47
